Data published in patent publication US12600725B2 (Memorial Sloan-Kettering Cancer Center, priority 2013, dated 2026).

Experiments:
Grp94 = Grp94 (Canis lupus familiaris, UniProt P41148); settings: read-out: Grp94; FP competition, 6 nM Cy3B-GM, 10 nM protein, 4° C. for 24 h
Hsp90α = Hsp90α (Homo sapiens, UniProt P07900); test: biochemical; settings: FP competition, 6 nM Cy3B-GM, 10 nM protein, 4° C. for 24 h
Hsp90β = Hsp90β (Homo sapiens, UniProt P08238)
Trap-1 = biological target: T1, Trap-1 (Homo sapiens, UniProt Q12931); test: biochemical
T1 sequence (Q12931 60-704): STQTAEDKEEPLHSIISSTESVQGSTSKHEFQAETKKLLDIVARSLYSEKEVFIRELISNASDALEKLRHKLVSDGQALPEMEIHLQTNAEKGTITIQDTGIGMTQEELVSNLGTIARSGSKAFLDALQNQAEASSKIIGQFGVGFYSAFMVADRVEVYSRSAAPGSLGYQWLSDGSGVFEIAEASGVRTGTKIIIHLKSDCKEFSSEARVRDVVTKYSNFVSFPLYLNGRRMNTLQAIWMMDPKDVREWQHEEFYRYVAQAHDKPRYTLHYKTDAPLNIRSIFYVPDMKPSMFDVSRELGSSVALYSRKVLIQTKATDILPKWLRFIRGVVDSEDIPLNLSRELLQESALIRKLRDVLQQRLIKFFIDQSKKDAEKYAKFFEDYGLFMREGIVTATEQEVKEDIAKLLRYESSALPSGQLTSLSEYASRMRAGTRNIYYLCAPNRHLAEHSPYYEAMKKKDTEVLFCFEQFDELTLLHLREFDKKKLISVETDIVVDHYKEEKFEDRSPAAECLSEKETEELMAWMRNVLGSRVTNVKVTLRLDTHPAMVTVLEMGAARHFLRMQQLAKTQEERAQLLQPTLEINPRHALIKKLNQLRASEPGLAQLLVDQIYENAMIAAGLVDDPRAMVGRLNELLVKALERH

Hsp90β, sequence (P08238 whole entry): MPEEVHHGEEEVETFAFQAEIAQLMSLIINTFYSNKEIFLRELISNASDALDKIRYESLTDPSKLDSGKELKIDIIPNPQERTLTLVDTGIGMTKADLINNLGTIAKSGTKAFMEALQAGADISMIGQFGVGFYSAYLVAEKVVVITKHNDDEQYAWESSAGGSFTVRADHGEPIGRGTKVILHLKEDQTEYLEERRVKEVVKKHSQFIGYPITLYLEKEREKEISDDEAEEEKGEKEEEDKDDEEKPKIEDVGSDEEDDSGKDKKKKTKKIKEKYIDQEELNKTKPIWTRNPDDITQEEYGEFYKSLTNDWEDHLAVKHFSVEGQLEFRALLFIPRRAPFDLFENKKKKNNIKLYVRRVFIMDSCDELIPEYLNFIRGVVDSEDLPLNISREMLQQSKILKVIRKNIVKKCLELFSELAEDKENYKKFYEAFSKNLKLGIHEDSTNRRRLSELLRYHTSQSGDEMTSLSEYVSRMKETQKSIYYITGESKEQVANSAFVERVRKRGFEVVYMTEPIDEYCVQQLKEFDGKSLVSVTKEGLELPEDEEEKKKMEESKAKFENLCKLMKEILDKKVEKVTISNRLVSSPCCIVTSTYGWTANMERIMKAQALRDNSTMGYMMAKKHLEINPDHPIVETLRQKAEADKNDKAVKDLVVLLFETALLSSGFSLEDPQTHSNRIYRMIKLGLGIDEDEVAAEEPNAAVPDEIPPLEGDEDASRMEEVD
Grp94, sequence (P41148 with tags, fused parts or gaps DELINS287-327GGGG): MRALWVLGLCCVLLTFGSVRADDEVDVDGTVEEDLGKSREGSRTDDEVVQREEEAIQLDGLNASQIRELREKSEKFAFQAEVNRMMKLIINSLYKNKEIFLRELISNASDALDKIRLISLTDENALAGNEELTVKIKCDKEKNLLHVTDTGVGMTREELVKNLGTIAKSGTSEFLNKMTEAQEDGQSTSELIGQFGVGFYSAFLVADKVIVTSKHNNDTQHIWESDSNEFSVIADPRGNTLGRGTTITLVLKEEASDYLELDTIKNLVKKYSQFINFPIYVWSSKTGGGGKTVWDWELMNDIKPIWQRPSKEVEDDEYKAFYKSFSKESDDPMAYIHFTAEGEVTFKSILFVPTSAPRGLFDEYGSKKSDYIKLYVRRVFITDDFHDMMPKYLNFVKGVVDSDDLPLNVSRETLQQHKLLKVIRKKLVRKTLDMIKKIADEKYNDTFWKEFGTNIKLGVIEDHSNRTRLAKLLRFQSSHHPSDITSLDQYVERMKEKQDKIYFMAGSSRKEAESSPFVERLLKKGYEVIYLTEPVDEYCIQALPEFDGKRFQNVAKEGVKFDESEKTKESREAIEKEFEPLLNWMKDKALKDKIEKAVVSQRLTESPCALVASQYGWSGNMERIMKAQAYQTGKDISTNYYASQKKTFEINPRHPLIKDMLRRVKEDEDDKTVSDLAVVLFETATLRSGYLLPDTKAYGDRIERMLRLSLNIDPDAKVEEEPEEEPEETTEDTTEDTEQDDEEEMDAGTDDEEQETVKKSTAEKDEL

Structure (SMILES)	IC50 (Grp94)	IC50 (Hsp90α)	IC50 (Hsp90β)	IC50 (Trap-1)
C#CCCCn1cnc(N)c2nc(Sc3cc(C)cc(C)c3)nc1-2 [PU-H45]	> 100 µM	> 100 µM	> 100 µM	
C#CCCCn1cnc(N)c2nc(Sc3cc(Cl)c(Cl)cc3Cl)nc1-2 [PU-H52]	2.08 ± 1.49 µM	> 100 µM	> 100 µM	
C#CCCCn1cnc(N)c2nc(Sc3ccc(Cl)cc3Cl)nc1-2 [PU-H38]	2.37 ± 0.79 µM	> 500 µM	> 500 µM	
C#CCCCn1c(Sc2ccccc2OC)nc2c(N)ncnc21 [PU-H5]	6.2 ± 2.5 µM		110 ± 120 µM	
C#CCCCn1cnc(N)c2nc(Sc3cc(Br)ccc3OC)nc1-2 [PU-H63]	2.3 ± 0.1 µM	5.9 ± 0.5 µM	2.5 ± 0.2 µM	
C#CCCCn1c(Sc2ccccc2CO)nc2c(N)ncnc21 [PU-H34]	29 ± 9 µM	> 100 µM	> 100 µM	
C#CCCCn1c(Sc2ccccc2Cl)nc2c(N)ncnc21 [PU-H6]	0.35 ± 0.05 µM	> 100 µM	> 100 µM	
C#CCCCn1c(Sc2cc(Cl)cc(Br)c2)nc2c(N)ncnc21 [PDP-I-53-N9]	0.22 ± 0.02 µM			> 100 µM
C#CCCCn1cnc(N)c2nc(Sc3ccccc3OC)nc1-2 [PU-H46]	> 100 µM	> 100 µM	> 100 µM	
C#CCCCn1cnc(N)c2nc(Sc3c(C)cc(C)cc3C)nc1-2 [PU-H37]	20 ± 5 µM	> 100 µM	> 100 µM	
C#CCCCn1cnc(N)c2nc(Sc3cc(Cl)ccc3C(F)(F)F)nc1-2 [PU-H53]	200 µM	> 100 µM	> 100 µM	
CCCCn1c(Cc2ccc(OC)cc2)nc2c(N)ncnc21 [PU1]	3.2 ± 0.4 µM	110 ± 20 µM	92 ± 2 µM	
C#CCCCn1c(Sc2cc(Cl)ccc2C(F)(F)F)nc2c(N)ncnc21 [PU-H2]	0.5 ± 0.2 µM		6.5 ± 2.3 µM	
C#CCCCn1cnc(N)c2nc(Sc3ccccc3CO)nc1-2 [PU-H35]	> 100 µM	> 100 µM	> 100 µM	
C#CCCCn1cnc(N)c2nc(Sc3cc(C)ccc3C)nc1-2 [PU-H29]	185 ± 15 µM	> 100 µM	> 100 µM	
C#CCCCn1cnc(N)c2nc(Sc3cc(Cl)ccc3Cl)nc1-2 [PU-H43]	35.3 ± 5 µM	> 100 µM	> 100 µM	
C#CCCCn1c(Sc2ccc(OC)cc2)nc2c(N)ncnc21 [PU-H1]	1.13 ± 0.2 µM	> 100 µM	> 100 µM	
C#CCCCn1c(Sc2ccccc2OC(F)(F)F)nc2c(N)ncnc21 [PU-H9]	1.4 ± 0.2 µM	> 100 µM	> 100 µM	
C#CCCCn1c(Sc2ccc(OC)cc2OC)nc2c(N)ncnc21 [PU-H8]	34.5 ± 3.5 µM	47.4 ± 2.2 µM	22.4 ± 2.8 µM	
CN1CCN(CCn2c(Sc3cc(Cl)cc(Cl)c3)nc3c(N)ncnc32)CC1 [SO-III-39A, 8-((3,5-dichlorophenyl)thio)-9-(2-(4-methylpiperazin-1-yl)ethyl)-9H-purin-6-amine]	0.373 µM	52.2 µM		
C[C@@H](O)CNCCn1c(Sc2ccc(Cl)cc2Cl)nc2c(N)ncnc21 [HJP-V-104, 1(R)-1-((2-(6-Amino-8-((2,4-dichlorophenyl)thio)-9H-purin-9-yl)ethyl)amino)propan-2-ol]	1.5 µM	55.8 µM		
CCCC(C)n1c(Sc2ccc(Cl)cc2Cl)nc2c(N)ncnc21 (stereo not drawn) [HJP-V-114, 8-((2,4-Dichlorophenyl)thio)-9-(pentan-2-yl)-9H-purin-6-amine]	2.48 µM	> 50 µM		
CC(C)NCCCn1c(Sc2cc(Cl)cc(/C=C/C(C)(C)C)c2)nc2c(N)ncnc21 [HJP-VI-72, (E)-8-((3-chloro-5-(3,3-dimethylbut-1-en-1-yl)phenyl)thio)-9-(3-(isopropylamino)propyl)-9H-purin-6-amine]	0.102 µM	14.2 µM		

Structure (SMILES)	IC50 (Grp94)	IC50 (Hsp90α)	IC50 (Hsp90β)	IC50 (Trap-1)
C#CCCCn1c(Sc2ccc(C#N)c(Cl)c2)nc2c(N)ncnc21 [HJP-III-33, 4-((6-Amino-9-(pent-4-yn-1-yl)-9H-purin-8-yl)thio)-2-chlorobenzonitrile]	3.45 µM	7.6 µM		
C#CCCCn1cnc(N)c2nc(Sc3ccccc3Cl)nc1-2 [PU-H47]		> 100 µM	> 100 µM	
C#CCCCn1cnc(N)c2nc(Sc3ccc(-n4cccc4)cc3)nc1-2 [PDP-I-51-N3]	> 5 µM	> 50 µM		
COC(C)CNCCn1c(Sc2cc(Cl)cc(Cl)c2)nc2c(N)ncnc21 (stereo not drawn) [SO-III-75A, 8-((3,5-dichlorophenyl)thio)-9-(2-((2-methoxypropyl)amino)ethyl)-9H-purin-6-amine]	0.89 µM	39.9 µM		
Nc1ncn(CCCC(F)(F)F)c2nc(Sc3cc(Cl)cc(Cl)c3)nc1-2	> 10 µM	> 50 µM		
C#CCCCn1c(Sc2c(C)cc(C)cc2C)nc2c(N)ncnc21 [PU-H36]	2.1 ± 0.56 µM	> 250 µM	> 250 µM	
C#CCCCn1c(Sc2cc(Cl)nc(Cl)c2)nc2c(N)ncnc21 [HJP-VI-66, 8-((2,6-dichloropyridin-4-yl)thio)-9-(pent-4-yn-1-yl)-9H-purin-6-amine]	1.9 µM	> 5 µM		
CC(C)NCCCn1c(Sc2cc(Cl)cc(-c3cccs3)c2)nc2c(N)ncnc21 [HJP-VI-10, 8-((3-chloro-5-(thiophen-2-yl)phenyl)thio)-9-(3-(isopropylamino)propyl)-9H-purin-6-amine]	0.16 µM	7.9 µM		
CC(C)NCCCn1c(Sc2ccc(Cl)cc2Cl)nc2c(N)nccc21 [HJP-VI-101, 2-((2,4-dichlorophenyl)thio)-1-(3-(isopropylamino)propyl)-1H-imidazo[4,5-c]pyridin-4-amine]	> 5 µM	9.2 µM		
C#CCCCn1c(S(=O)(=O)c2ccc(Cl)cc2Cl)nc2c(N)ncnc21 [HJP-V-62T, 8-((2,4-Dichlorophenyl)sulfonyl)-9-(pent-4-yn-1-yl)-9H-purin-6-amine]	4.7 µM	> 25 µM		
C#CCCCn1cnc(N)c2nc(Sc3ccccc3OC(F)(F)F)nc1-2 [PU-H48]	106 µM	> 100 µM	> 100 µM	
CC(C)NCCCn1c(Sc2ccc(Cl)cc2-c2ccc[nH]2)nc2c(N)ncnc21 [HJP-VI-42, 8-((4-chloro-2-(1H-pyrrol-2-yl)phenyl)thio)-9-(3-(isopropylamino)propyl)-9H-purin-6-amine]	1.1 µM	66.9 µM		
C#CCN(CCO)CCCn1c(Sc2cc(Cl)cc(Cl)c2)nc2c(N)ncnc21 [HJP-V-132, 2-((3-(6-amino-8-((3,5-dichlorophenyl)thio)-9H-purin-9-yl)propyl)(prop-2-yn-1-yl)amino)ethanol]	0.81 µM	26.6 µM		
Nc1ncnc2c1nc(Sc1ccc(Cl)cc1Cl)n2CCc1ccccc1C(F)(F)F [HJP-V-98, 8-((2,4-Dichlorophenyl)thio)-9-(2-(trifluoromethyl)phenethyl)-9H-purin-6-amine]	0.71 µM	> 50 µM		
CC(C)NCCCn1c(Sc2cc(Cl)cc(-c3cccc([N+](=O)[O-])c3)c2)nc2c(N)ncnc21 [HJP-VI-8, 8-((5-chloro-3′-nitro-[1,1′-biphenyl]-3-yl)thio)-9-(3-(isopropylamino)propyl)-9H-purin-6-amine]	0.58 µM	47.3 µM		
C#CCCCn1c(Cc2cc(Cl)ccc2Cl)nc2c(N)ncnc21 [HJP-V-54, 8-(2,5-Dichlorobenzyl)-9-(pent-4-yn-1-yl)-9H-purin-6-amine]	0.75 µM	> 10 µM		
Nc1ncnc2c1nc(Sc1ccc(Cl)cc1Cl)n2CCc1ccccc1Cl [HJP-V-97, 9-(2-Chlorophenethyl)-8-((2,4-dichlorophenyl)thio)-9H-purin-6-amine]	2.2 µM	186 µM		
Nc1ncnc2c1nc(Sc1cc(Cl)cc(Cl)c1)n2CCCn1ccnc1 [SO-III-103A, 9-(3-(1H-imidazol-1-yl)propyl)-8-((3,5-dichlorophenyl)thio)-9H-purin-6-amine]	0.203 µM	> 10 µM		
CC(C)NCCCn1c(Sc2cc(Cl)cc(C#CC(C)(C)C)c2)nc2c(N)ncnc21 [HJP-VI-53, 8-((3-chloro-5-(3,3-dimethylbut-1-yn-1-yl)phenyl)thio)-9-(3-(isopropylamino)propyl)-9H-purin-6-amine]	0.63 µM	> 50 µM		
C#CCCCn1c(Sc2ccc(Cl)c3ccccc23)nc2c(N)ncnc21 [PDP-I-77-N9]	> 2 µM	> 50 µM		
Nc1ncnc2c1nc(Sc1ccc(Cl)cc1Cl)n2CCc1ccccc1F [HJP-V-96, 8-((2,4-Dichlorophenyl)thio)-9-(2-fluorophenethyl)-9H-purin-6-amine]	1.9 µM	> 50 µM		
C[C@H](O)CNCCn1c(Sc2ccc(Cl)cc2Cl)nc2c(N)ncnc21 [HJP-V-105, 1(S)-1-((2-(6-Amino-8-((2,4-dichlorophenyl)thio)-9H-purin-9-yl)ethyl)amino)propan-2-ol]	0.35 µM	> 50 µM		
